Results: the supplement of paper PMC4862054

Experiments:
Settings in all cases: incubation time: 72 h
BT-474 [1] = assay: normalised response (% of control), CellTox Green; higher = less cell death (100 = DMSO, 0 = benzethonium chloride kill control)
Procedure, shortened: (§1)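 Breast cancer cell lines in 20 µl suspension were added to 384-well plates containing compound at 5 concentrations, spaced in 10-fold steps across a 10,000-fold range chosen for each compound, and incubated for 72 h. CellTox Green fluorescence was read at 485/520 nm, followed by CellTiter-Glo luminescence after 10 min at room temperature. Signals on each plate were normalised so that 0.1 % DMSO equals 100 and a positive kill control equals 0. Every value in the table is the normalised signal at one concentration of the series.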

BT-549 [2] = assay: as above
Procedure, shortened: as §1

CAL-120 [3] = assay: as above
Procedure, shortened: as §1

CAL-148 [4] = assay: as above
Procedure, shortened: as §1

CAL-51 [5] = assay: as above
Procedure, shortened: as §1

CAL-85-1 [6] = assay: as above
Procedure, shortened: as §1

DU-4475 [7] = assay: as above
Procedure, shortened: as §1

HCC1143 [8] = assay: as above
Procedure, shortened: as §1

HCC1599 [9] = assay: as above
Procedure, shortened: as §1

HCC1937 [10] = assay: as above
Procedure, shortened: as §1

HDQ-P1 [11] = assay: as above
Procedure, shortened: as §1

Hs578T [12] = assay: as above
Procedure, shortened: as §1

MCF-10A [13] = assay: as above
Procedure, shortened: as §1

MDA-MB-231 [14] = assay: as above
Procedure, shortened: as §1

MDA-MB-436 [15] = assay: as above
Procedure, shortened: as §1

MDA-MB-453 [16] = assay: as above
Procedure, shortened: as §1

MDA-MB-468 [17] = assay: as above
Procedure, shortened: as §1

MFM-223 [18] = assay: as above
Procedure, shortened: as §1

BT-474 [19] = assay: normalised response (% of control), CellTiter-Glo; higher = more viable cells (100 = DMSO, 0 = benzethonium chloride kill control)
Procedure, shortened: as §1

BT-549 [20] = assay: as above
Procedure, shortened: as §1

CAL-120 [21] = assay: as above
Procedure, shortened: as §1

CAL-148 [22] = assay: as above
Procedure, shortened: as §1

CAL-51 [23] = assay: as above
Procedure, shortened: as §1

CAL-85-1 [24] = assay: as above
Procedure, shortened: as §1

DU-4475 [25] = assay: as above
Procedure, shortened: as §1

HCC1143 [26] = assay: as above
Procedure, shortened: as §1

HCC1599 [27] = assay: as above
Procedure, shortened: as §1

HCC1937 [28] = assay: as above
Procedure, shortened: as §1

HDQ-P1 [29] = assay: as above
Procedure, shortened: as §1

Hs578T [30] = assay: as above
Procedure, shortened: as §1

MCF-10A [31] = assay: as above
Procedure, shortened: as §1

MDA-MB-231 [32] = assay: as above
Procedure, shortened: as §1

MDA-MB-436 [33] = assay: as above
Procedure, shortened: as §1

MDA-MB-453 [34] = assay: as above
Procedure, shortened: as §1

MDA-MB-468 [35] = assay: as above
Procedure, shortened: as §1

MFM-223 [36] = assay: as above
Procedure, shortened: as §1

SK-BR-3 = assay: as above
Procedure, shortened: as §1

| SMILES | normalised response (BT-474 [1]) [%] | normalised response (BT-549 [2]) [%] | normalised response (CAL-120 [3]) [%] | normalised response (CAL-148 [4]) [%] | normalised response (CAL-51 [5]) [%] | normalised response (CAL-85-1 [6]) [%] | normalised response (DU-4475 [7]) [%] | normalised response (HCC1143 [8]) [%] | normalised response (HCC1599 [9]) [%] | normalised response (HCC1937 [10]) [%] | normalised response (HDQ-P1 [11]) [%] | normalised response (Hs578T [12]) [%] | normalised response (MCF-10A [13]) [%] | normalised response (MDA-MB-231 [14]) [%] | normalised response (MDA-MB-436 [15]) [%] | normalised response (MDA-MB-453 [16]) [%] | normalised response (MDA-MB-468 [17]) [%] | normalised response (MFM-223 [18]) [%] | normalised response (BT-474 [19]) [%] | normalised response (BT-549 [20]) [%] | normalised response (CAL-120 [21]) [%] | normalised response (CAL-148 [22]) [%] | normalised response (CAL-51 [23]) [%] | normalised response (CAL-85-1 [24]) [%] | normalised response (DU-4475 [25]) [%] | normalised response (HCC1143 [26]) [%] | normalised response (HCC1599 [27]) [%] | normalised response (HCC1937 [28]) [%] | normalised response (HDQ-P1 [29]) [%] | normalised response (Hs578T [30]) [%] | normalised response (MCF-10A [31]) [%] | normalised response (MDA-MB-231 [32]) [%] | normalised response (MDA-MB-436 [33]) [%] | normalised response (MDA-MB-453 [34]) [%] | normalised response (MDA-MB-468 [35]) [%] | normalised response (MFM-223 [36]) [%] | normalised response (SK-BR-3) [%] |
| --- | --- | --- | --- | --- | --- | --- | --- | --- | --- | --- | --- | --- | --- | --- | --- | --- | --- | --- | --- | --- | --- | --- | --- | --- | --- | --- | --- | --- | --- | --- | --- | --- | --- | --- | --- | --- | --- |
| CC(=O)O[C@]1(C(C)=O)CC[C@H]2[C@@H]3C=C(C)C4=CC(=O)CC[C@]4(C)[C@H]3CC[C@@]21C [Megestrol acetate] (1000 nM) | 97.6 | 108 | 101 | 104 | 115 | 104 | 99.1 | 116 | 96.8 | 58.1 | 106 | 98.8 | 103 | 110 | 57.4 | 105 | 141 | 101 | 111 | 109 | 98.2 | 92.4 | 124 | 100 | 102 | 103 | 111 | 110 | 104 | 105 | 121 | 118 | 101 | 95.8 | 95.4 | 96.6 | 93.8 |
| CCN1CCN(c2ccc(Nc3cc(N(C)C(=O)Nc4c(Cl)c(OC)cc(OC)c4Cl)ncn3)cc2)CC1 [NVP-BGJ398] (100 nM) | 98.1 | 99.1 | 90.8 | 104 | 111 | 108 | 99.3 | 111 | 95.3 | 112 | 73 | 91 | 101 | 104 | 99.7 | 103 | 89.7 | 95.7 | 94.5 | 94.3 | 84.7 | 92.6 | 112 | 97.3 | 101 | 97.7 | 102 | 98.8 | 101 | 95.8 | 103 | 96.1 | 93.4 | 104 | 97.1 | 63.3 | 97.5 |
